pEC50, pIC50: −log10 of the molar value. The source made the active and inactive calls. The calls are words filed in the database; no cut-off is given here.
How the values were obtained:
[1] = target: T1, Histone-lysine N-methyltransferase EHMT2 (Homo sapiens, UniProt Q96KQ7); assay: Inhibition of recombinant human N-terminal GST-fused G9a (786 to 1210 residues) expressed in Escherichia coli using biotinylated H3 (1 to 21 residues) as substrate measured after 1 hr in presence of 3H-Adomet by filter binding assay
T1 sequence (Q96KQ7 whole entry): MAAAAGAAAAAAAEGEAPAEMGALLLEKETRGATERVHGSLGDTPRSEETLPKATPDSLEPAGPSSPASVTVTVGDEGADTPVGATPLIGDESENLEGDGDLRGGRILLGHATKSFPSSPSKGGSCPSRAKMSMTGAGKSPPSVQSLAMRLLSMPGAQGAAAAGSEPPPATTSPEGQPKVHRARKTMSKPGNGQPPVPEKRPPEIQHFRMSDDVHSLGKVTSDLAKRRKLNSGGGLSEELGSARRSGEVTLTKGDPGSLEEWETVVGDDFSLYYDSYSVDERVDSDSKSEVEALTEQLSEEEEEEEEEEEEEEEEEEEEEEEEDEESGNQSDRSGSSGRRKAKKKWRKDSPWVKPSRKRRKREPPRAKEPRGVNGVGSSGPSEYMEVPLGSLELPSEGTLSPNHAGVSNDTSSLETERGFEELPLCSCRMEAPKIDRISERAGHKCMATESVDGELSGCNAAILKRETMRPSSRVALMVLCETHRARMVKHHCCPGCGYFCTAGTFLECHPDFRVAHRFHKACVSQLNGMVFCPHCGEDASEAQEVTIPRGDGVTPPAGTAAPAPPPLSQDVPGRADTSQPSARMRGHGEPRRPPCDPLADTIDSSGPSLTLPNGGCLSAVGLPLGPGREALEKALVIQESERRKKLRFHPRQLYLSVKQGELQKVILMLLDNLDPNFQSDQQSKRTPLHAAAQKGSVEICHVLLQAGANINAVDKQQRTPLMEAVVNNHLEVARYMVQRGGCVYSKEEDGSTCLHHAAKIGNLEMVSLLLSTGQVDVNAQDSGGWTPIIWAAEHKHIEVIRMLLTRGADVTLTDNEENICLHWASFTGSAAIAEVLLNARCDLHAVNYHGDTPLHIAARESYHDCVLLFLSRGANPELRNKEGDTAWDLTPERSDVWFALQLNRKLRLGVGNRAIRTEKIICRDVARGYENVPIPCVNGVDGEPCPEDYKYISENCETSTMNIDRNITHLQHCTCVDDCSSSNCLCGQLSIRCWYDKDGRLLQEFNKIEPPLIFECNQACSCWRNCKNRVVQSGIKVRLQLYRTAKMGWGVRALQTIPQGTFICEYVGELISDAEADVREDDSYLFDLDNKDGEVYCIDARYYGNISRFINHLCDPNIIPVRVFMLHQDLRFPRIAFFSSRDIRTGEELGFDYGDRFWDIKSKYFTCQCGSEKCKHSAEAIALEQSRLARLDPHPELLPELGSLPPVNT

Plasmodium falciparum [2] = assay: Antiplasmodial activity against asynchronous form of Plasmodium falciparum 3D7 infected in human erythrocytes assessed as parasite growth inhibition after 48 hrs by SYBR green1 staining based flow cytometry; assay type: functional, organism-based; conditions: 3D7, 48 h
[3] = target: T2, DNA (cytosine-5)-methyltransferase 3A (Homo sapiens, UniProt Q9Y6K1); assay: Inhibition of recombinant human DNMT3a C-terminal catalytic domain (623 to 908 residues) using 5'-biotinylated/3'-FAM-oligonucleotide as substrate measured after 1 hr in presence of Adomet by fluorescence assay
Plasmodium falciparum [4] = assay: Antiplasmodial activity against asynchronous form of Plasmodium falciparum W2 infected in human erythrocytes assessed as parasite growth inhibition after 48 hrs by SYBR green1 staining based flow cytometry; assay type: functional, organism-based; conditions: W2, 48 h
HFF = assay: Cytotoxicity against HFF; assay type: cell-based; conditions: Homo sapiens
[5] = Selectivity index, ratio of IC50 for mouse spleen cells to IC50 for asynchronous form of Plasmodium falciparum 3D7 infected in human erythrocytes; assay type: toxicity, cell-based; conditions: read-out: Ratio IC50
[6] = target: DNA (cytosine-5)-methyltransferase 1 (Homo sapiens, UniProt P26358); assay: Inhibition of recombinant human DNMT1 using biotinylated DNA duplex as substrate measured after 2 hrs in presence of Adomet/[methyl-3H]Adomet by topcount method
Plasmodium falciparum [7] = assay: Antiplasmodial activity against Plasmodium falciparum Dd2 infected in human erythrocytes assessed as reduction in [3H]-hypoxanthine incorporation measured after 48 hrs by microbeta liquid scintillation counting method; assay type: functional, organism-based
Plasmodium falciparum [8] = assay: Antiplasmodial activity against asynchronous form of Plasmodium falciparum 3D7 infected in human erythrocytes assessed as parasite growth inhibition at 10 uM after 48 hrs by SYBR green1 staining based flow cytometry relative to control; assay type: functional; conditions: 3D7, 48 h
[9] = Cytotoxicity against mouse spleen cells; assay type: cell-based
Plasmodium berghei [10] = assay: Antimalarial activity against Plasmodium berghei ANKA infected in BALB/c mouse assessed as reduction in parasitemia at 10 mg/kg, po administered once daily for 4 days by Giemsa-staining based microscopic analysis; assay type: functional, organism-based
[11] = target: T2, DNA (cytosine-5)-methyltransferase 3A; assay: Inhibition of recombinant human DNMT3a C-terminal catalytic domain (623 to 908 residues) at 10 uM using 5'-biotinylated/3'-FAM-oligonucleotide as substrate measured after 1 hr in presence of Adomet by fluorescence assay relative to control
[12] = Plasma concentration in Crl:NRMI mouse at 50 mg/kg, iv measured after 180 mins by LC-MS/MS analysis; assay type: ADME, organism-based
[13] = Plasma concentration in Crl:NRMI mouse at 50 mg/kg, po administered via gavage measured after 30 mins by LC-MS/MS analysis; assay type: ADME, organism-based
[14] = Plasma concentration in Crl:NRMI mouse at 50 mg/kg, iv measured after 60 mins by LC-MS/MS analysis; assay type: ADME, organism-based
[15] = Plasma concentration in Crl:NRMI mouse at 50 mg/kg, po administered via gavage measured after 180 mins by LC-MS/MS analysis; assay type: ADME, organism-based
[16] = Stability in phosphate buffered saline at pH 7.4 after 24 hrs by UV/RP-HPLC analysis; assay type: physicochemical; conditions: buffer, pH 7.4, 24 h
[17] = tested on: Plasmodium falciparum 3D7; assay: Inhibition of Plasmodium falciparum 3D7 HDAC assessed as increase in histone H4 acetylation at 3 times antiplasmodial IC50 relative to control
[18] = Plasma concentration in Crl:NRMI mouse at 50 mg/kg, iv measured after 15 mins by LC-MS/MS analysis; assay type: ADME, organism-based
Plasmodium berghei [19] = assay: Antimalarial activity against Plasmodium berghei ANKA infected in BALB/c mouse assessed as reduction in parasitemia at 50 mg/kg, po administered twice daily for 4 days by Giemsa-staining based microscopic analysis; assay type: functional, organism-based
Plasmodium berghei [20] = assay: Antimalarial activity against Plasmodium berghei ANKA infected in BALB/c mouse assessed as reduction in parasitemia at 50 mg/kg, po administered twice daily (one dose iv and one dose po) for 4 days by Giemsa-staining based microscopic analysis; assay type: functional, organism-based
[21] = Plasma concentration in Crl:NRMI mouse at 50 mg/kg, po administered via gavage measured after 60 mins by LC-MS/MS analysis; assay type: ADME, organism-based
Histone deacetylase 4 = Histone deacetylase 4 (Homo sapiens, UniProt P56524); assay: Inhibition of recombinant human HDAC4 using Boc-Lys(trifluoroacetyl)-AMC as substrate by homogeneous fluorescence release assay
Histone deacetylase 1 = Histone deacetylase 1 (Homo sapiens, UniProt Q13547); assay: Inhibition of recombinant human HDAC1 using RHK-K(Ac) as substrate by homogeneous fluorescence release assay
[22] = target: T3, Protein deacetylase HDAC6 (Homo sapiens, UniProt Q9UBN7); assay: Inhibition of recombinant human HDAC6 using RHK-K(Ac) as substrate by homogeneous fluorescence release assay
T3 sequence (Q9UBN7 whole entry): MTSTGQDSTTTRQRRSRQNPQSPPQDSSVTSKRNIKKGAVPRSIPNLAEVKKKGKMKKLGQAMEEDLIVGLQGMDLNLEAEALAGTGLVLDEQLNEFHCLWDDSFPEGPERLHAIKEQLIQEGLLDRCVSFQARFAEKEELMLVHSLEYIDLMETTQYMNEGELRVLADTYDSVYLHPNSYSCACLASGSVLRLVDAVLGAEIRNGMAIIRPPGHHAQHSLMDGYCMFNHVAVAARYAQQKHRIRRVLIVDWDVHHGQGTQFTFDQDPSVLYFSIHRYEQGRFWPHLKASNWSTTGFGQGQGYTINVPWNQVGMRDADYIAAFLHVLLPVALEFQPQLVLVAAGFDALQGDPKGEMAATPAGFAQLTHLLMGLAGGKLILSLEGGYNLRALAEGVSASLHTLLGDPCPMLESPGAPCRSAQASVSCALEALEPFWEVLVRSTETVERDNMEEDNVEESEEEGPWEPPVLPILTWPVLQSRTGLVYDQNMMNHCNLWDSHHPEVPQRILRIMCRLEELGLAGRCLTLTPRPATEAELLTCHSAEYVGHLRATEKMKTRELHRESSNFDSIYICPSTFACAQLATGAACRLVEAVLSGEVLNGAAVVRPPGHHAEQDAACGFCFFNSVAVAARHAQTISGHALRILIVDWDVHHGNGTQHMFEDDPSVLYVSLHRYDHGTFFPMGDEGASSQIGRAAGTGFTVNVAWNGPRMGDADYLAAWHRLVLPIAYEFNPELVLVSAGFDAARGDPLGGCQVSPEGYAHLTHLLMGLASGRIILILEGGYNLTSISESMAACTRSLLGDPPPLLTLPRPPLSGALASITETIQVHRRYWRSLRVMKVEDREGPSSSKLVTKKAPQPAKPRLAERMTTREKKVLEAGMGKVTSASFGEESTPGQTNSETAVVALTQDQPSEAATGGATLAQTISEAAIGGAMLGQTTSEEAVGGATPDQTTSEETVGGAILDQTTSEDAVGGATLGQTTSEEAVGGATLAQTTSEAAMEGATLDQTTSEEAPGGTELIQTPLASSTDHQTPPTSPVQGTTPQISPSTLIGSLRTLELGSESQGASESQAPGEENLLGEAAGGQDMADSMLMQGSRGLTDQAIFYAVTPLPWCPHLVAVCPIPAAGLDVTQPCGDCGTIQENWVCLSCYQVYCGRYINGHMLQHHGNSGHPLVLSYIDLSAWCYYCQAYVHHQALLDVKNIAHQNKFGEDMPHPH

T2 sequence (Q9Y6K1 whole entry, looked up, the tested form may be a part): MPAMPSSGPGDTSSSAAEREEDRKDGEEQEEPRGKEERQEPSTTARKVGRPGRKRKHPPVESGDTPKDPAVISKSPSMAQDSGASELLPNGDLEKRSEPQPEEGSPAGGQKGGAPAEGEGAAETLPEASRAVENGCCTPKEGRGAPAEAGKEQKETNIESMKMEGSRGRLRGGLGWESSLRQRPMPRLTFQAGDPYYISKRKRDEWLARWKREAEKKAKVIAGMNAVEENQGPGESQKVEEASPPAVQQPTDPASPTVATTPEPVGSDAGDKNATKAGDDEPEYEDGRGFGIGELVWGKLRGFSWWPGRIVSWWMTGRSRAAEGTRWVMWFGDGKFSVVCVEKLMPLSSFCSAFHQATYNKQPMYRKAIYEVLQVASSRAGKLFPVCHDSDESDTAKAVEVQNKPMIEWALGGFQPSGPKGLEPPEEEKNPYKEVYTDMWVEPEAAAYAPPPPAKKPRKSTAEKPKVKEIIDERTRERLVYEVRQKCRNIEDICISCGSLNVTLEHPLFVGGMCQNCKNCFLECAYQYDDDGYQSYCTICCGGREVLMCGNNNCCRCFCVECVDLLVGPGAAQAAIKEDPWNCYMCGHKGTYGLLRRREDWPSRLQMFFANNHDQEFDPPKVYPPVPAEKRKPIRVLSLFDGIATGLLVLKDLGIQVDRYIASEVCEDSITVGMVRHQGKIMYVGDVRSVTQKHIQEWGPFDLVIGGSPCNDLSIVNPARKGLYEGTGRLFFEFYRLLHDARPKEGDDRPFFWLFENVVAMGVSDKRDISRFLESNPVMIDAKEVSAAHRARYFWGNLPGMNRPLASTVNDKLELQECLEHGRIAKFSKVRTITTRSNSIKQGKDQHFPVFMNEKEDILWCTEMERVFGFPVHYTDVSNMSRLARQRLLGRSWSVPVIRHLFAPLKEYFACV
Histone deacetylase 1, sequence (Q13547 whole entry): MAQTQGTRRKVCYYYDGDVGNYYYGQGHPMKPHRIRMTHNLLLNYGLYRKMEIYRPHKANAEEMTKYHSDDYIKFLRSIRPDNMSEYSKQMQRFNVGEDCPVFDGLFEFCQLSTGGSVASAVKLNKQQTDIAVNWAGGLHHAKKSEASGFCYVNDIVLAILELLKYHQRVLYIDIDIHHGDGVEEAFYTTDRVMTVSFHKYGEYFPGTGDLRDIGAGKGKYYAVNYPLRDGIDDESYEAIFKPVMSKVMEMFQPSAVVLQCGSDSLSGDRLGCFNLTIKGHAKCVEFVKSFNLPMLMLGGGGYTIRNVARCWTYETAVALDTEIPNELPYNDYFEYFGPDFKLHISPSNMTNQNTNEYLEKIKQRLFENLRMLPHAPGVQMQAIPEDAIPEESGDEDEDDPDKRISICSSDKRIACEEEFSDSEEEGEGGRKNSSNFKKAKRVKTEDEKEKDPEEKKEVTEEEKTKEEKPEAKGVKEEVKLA
DNA (cytosine-5)-methyltransferase 1, sequence (P26358 whole entry): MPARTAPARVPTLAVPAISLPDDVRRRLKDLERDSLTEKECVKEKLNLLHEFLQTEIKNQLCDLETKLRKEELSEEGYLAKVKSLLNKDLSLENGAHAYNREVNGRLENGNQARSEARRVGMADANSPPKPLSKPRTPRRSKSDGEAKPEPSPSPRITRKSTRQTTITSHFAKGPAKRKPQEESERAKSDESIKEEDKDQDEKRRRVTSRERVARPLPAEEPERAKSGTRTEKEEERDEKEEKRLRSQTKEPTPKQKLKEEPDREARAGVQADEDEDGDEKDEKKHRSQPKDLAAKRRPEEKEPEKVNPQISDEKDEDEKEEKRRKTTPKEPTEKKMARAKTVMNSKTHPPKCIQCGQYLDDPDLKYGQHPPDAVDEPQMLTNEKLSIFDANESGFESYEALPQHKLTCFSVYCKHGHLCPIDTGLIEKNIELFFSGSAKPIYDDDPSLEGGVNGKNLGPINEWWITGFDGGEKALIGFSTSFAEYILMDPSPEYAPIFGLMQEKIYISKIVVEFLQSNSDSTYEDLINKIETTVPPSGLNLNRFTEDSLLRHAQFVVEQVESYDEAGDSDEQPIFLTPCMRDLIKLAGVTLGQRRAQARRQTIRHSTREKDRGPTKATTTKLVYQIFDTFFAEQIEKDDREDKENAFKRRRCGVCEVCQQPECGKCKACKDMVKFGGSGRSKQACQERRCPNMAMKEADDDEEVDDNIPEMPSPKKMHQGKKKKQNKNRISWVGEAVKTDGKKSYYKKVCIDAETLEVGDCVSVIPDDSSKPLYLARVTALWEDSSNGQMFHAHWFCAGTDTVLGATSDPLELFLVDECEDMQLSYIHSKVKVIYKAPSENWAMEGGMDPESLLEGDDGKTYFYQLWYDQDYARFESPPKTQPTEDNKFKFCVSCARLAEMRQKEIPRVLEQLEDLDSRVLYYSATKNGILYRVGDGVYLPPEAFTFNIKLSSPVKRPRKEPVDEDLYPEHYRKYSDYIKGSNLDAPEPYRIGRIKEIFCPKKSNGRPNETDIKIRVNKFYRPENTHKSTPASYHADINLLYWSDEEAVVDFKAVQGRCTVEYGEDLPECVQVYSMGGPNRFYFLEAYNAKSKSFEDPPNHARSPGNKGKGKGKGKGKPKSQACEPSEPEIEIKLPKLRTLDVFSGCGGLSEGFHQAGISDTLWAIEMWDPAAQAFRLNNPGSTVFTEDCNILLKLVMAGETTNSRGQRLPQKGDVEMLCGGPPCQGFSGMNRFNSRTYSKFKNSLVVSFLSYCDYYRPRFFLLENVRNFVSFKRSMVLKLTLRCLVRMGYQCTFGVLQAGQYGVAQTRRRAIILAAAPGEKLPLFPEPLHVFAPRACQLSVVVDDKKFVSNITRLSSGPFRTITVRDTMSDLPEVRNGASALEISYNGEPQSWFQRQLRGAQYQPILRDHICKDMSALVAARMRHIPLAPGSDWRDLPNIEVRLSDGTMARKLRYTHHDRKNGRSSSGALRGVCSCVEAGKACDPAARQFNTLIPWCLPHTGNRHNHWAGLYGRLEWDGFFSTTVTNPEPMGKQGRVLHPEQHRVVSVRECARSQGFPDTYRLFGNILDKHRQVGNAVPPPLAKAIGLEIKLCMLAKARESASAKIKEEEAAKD
Histone deacetylase 4, sequence (P56524 whole entry): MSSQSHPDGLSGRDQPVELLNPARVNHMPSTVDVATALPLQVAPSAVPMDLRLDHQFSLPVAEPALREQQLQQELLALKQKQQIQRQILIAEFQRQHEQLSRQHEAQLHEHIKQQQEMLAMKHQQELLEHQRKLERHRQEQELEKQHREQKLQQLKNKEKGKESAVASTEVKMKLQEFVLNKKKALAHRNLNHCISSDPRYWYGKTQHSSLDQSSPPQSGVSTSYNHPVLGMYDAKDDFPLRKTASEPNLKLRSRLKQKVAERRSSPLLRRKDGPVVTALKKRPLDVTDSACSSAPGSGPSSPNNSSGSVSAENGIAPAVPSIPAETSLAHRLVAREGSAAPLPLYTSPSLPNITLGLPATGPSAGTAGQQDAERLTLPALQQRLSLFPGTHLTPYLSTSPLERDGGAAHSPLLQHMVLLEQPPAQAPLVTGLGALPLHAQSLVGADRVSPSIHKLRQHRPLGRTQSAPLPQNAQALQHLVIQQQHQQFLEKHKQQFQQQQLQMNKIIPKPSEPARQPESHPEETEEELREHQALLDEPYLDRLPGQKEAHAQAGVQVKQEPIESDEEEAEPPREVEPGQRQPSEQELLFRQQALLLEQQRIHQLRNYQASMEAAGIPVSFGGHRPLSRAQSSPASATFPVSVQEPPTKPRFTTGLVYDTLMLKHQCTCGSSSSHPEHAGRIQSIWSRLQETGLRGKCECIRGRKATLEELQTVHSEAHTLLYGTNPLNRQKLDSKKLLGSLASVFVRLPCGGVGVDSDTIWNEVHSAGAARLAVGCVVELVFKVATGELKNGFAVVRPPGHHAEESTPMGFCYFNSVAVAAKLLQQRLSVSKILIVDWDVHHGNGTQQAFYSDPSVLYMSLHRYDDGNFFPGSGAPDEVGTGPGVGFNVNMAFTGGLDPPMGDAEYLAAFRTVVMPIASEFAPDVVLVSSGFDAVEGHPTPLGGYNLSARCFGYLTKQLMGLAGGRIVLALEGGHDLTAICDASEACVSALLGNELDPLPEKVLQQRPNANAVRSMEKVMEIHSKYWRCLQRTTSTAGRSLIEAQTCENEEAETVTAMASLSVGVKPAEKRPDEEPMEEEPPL

Compound	pIC50 (Plasmodium falciparum [2])	pIC50 (Plasmodium falciparum [4])	pIC50 (HFF)	selectivity ratio [5]	pIC50 (Plasmodium falciparum [7])	inhibition at 10 µM (Plasmodium falciparum [8]) [%]	pIC50 [9]	also measured
COc1ccc(CCN2CCC(Nc3nc(NCc4ccc(F)cc4)nc4cc(OC)c(OC)cc34)CC2)cc1	7.74	7.59	5.49	44	8.21	100	6.10	pEC50 [1]: 4.50; pEC50 [3]: 5.28; pEC50 [6]: < 4.00
CCN(CC)CCCC(C)Nc1ccnc2cc(Cl)ccc12 (centres undefined)	–	–	–	–	–	–	–	Activity (Plasmodium berghei [10]): Active
c1ccc(COc2ccc3c(NC4CCN(Cc5ccccc5)CC4)nc(N4CCN(c5ccccc5)CC4)nc3c2)cc1	7.17	–	–	–	–	100	–	inhibition [11]: 43%
O=C(CCCCSc1nc(-c2ccc(-c3ccccc3)cc2)cc(=O)[nH]1)NO	8.22 to 8.40	8.18	5.48	186	8.40	96.1 to 97	6.11	concentration at 3 h [12]: 43 to 44 nM; concentration at 0.5 h [13]: 670 to 2430 nM; concentration at 1 h [14]: 1670 to 2160 nM; concentration at 3 h [15]: 70 to 300 nM; Stability [16]: Stable; fold change (FC) [17]: < 2; concentration at 0.25 h [18]: 10700 to 15200 nM; Activity (Plasmodium berghei [19]): inactive; Activity (Plasmodium berghei [20]): inactive; concentration at 1 h [21]: 480 to 900 nM
O=C(/C=C/c1ccc(NC(=O)Cc2cccc3ccccc23)cn1)NO	7.68 to 7.99	7.82	< 5.00	9	7.87	96.8 to 97.9	6.92	pIC50 (Histone deacetylase 4): 5.57; pIC50 (Histone deacetylase 1): 7.00; pIC50 [22]: 7.82
COc1cc2c(NCCNc3cccc4ccccc34)nc(N3CCN(c4ccccc4)CC3)nc2cc1OCc1ccccc1	7.25	–	–	–	–	99.6	–	inhibition [11]: 15%
O=C(CCCCCSc1nc(-c2ccc3ccccc3c2)cc(=O)[nH]1)NO	7.10	–	–	–	–	97.4	–	pIC50 (Histone deacetylase 4): < 4.30; pIC50 (Histone deacetylase 1): 6.00; pIC50 [22]: 7.77
COc1ccc(CCN2CCC(Nc3nc(NCc4ccc(F)cc4)nc4ccccc34)CC2)cc1	7.47	–	–	–	–	100	–	pEC50 [1]: 4.29; pEC50 [3]: 5.32; pEC50 [6]: < 4.00

Reference: ChEMBL document CHEMBL4325862, “Identification of novel quinazoline derivatives as potent antiplasmodial agents” (Eur J Med Chem, 2019)
